Experimental data taken from paper PMC11240878, “Synthesis, enzyme inhibition assay, and molecular modeling study of novel pyrazolines linked to 4-methylsulfonylphenyl scaffold: antitumor activity and cell cycle analysis” (RSC Advances, 2024).

Legend:
RPMI-8226 = assay: NCI single-dose GI%, leukemia; format: cell-based, human; conditions: RPMI-8226, leukemia; 10.0 μM in one dose
[1] = system: breast adenocarcinoma MCF-7; assay: cells; conditions: Homo sapiens, MCF7, 48 h, read-out: In vitro cytotoxicity IC50, MCF-7; MTT, 48 h drug exposure; mean ± SD of three experiments
[2] = system: caspase-3 in MDA-MB-231 cells; assay: Apoptotic markers assay, caspase-3; format: cell-based, human; conditions: at IC50 concentration, vs untreated control
Procedure: (§1) The levels of Bax (apoptosis promoter), Bcl-2 (apoptosis inhibitor), and apoptosis coordination enzymes (caspase-3 and caspase-9) were measured.[78–80]
(§2) Apoptotic markers experiment was performed according to reported procedure using MDA-MB-231 cancer cell line.[78–80]

U251 = assay: NCI single-dose GI%, CNS; format: cell-based, human; conditions: 10.0 μM in one dose
SK-OV-3 = assay: NCI single-dose GI%, ovarian; format: cell-based, human; conditions: SK-OV-3, ovarian; 10.0 μM in one dose
BT-549 = assay: NCI single-dose GI%, breast; format: cell-based, human; conditions: BT-549, breast; 10.0 μM in one dose
HOP-62 = assay: NCI single-dose GI%, NSC lung; format: cell-based, human; conditions: HOP-62, NSC lung; 10.0 μM in one dose
[3] = system: caspase-9 in MDA-MB-231 cells; assay: Apoptotic markers assay, caspase-9; format: cell-based, human; conditions: at IC50 concentration, vs untreated control
Procedure: as §1, §2

NCI-H522 = assay: NCI single-dose GI%, NSC lung; format: cell-based, human; conditions: 10.0 μM in one dose
OVCAR-8 = assay: NCI single-dose GI%, ovarian; format: cell-based, human; conditions: OVCAR-8, ovarian; 10.0 μM in one dose
SNB-75 = assay: NCI single-dose GI%, CNS; format: cell-based, human; conditions: SNB-75, CNS; 10.0 μM in one dose
NCI/ADR-RES = assay: NCI single-dose GI%, ovarian; format: cell-based, human; conditions: 10.0 μM in one dose
SR = assay: NCI single-dose GI%, leukemia; format: cell-based, human; conditions: 10.0 μM in one dose
SF-295 = assay: NCI single-dose GI%, CNS; format: cell-based, human; conditions: SF-295, CNS; 10.0 μM in one dose
SK-MEL-28 = assay: NCI single-dose GI%, melanoma; format: cell-based, human; conditions: SK-MEL-28, melanoma; 10.0 μM in one dose
LOX IMVI = assay: NCI single-dose GI%, melanoma; format: cell-based, human; conditions: 10.0 μM in one dose
SK-MEL-2 = assay: NCI single-dose GI%, melanoma; format: cell-based, human; conditions: SK-MEL-2, melanoma; 10.0 μM in one dose
SNB-19 = assay: NCI single-dose GI%, CNS; format: cell-based, human; conditions: SNB-19, CNS; 10.0 μM in one dose
SF-268 = assay: NCI single-dose GI%, CNS; format: cell-based, human; conditions: SF-268, CNS; 10.0 μM in one dose
OVCAR-4 = assay: NCI single-dose GI%, ovarian; format: cell-based, human; conditions: OVCAR-4, ovarian; 10.0 μM in one dose
MDA-MB-231/ATCC = assay: NCI single-dose GI%, breast; format: cell-based, human; conditions: 10.0 μM in one dose
NCI-H23 = assay: NCI single-dose GI%, NSC lung; format: cell-based, human; conditions: 10.0 μM in one dose
HCT-15 = assay: NCI single-dose GI%, colon; format: cell-based, human; conditions: HCT-15, colon; 10.0 μM in one dose
ACHN = assay: NCI single-dose GI%, renal; format: cell-based, human; conditions: 10.0 μM in one dose
RXF 393 = assay: NCI single-dose GI%, renal; format: cell-based, human; conditions: RXF 393, renal; 10.0 μM in one dose
CCRF-CEM = assay: NCI single-dose GI%, leukemia; format: cell-based, human; conditions: 10.0 μM in one dose
NCI-H460 = assay: NCI single-dose GI%, NSC lung; format: cell-based, human; conditions: 10.0 μM in one dose
DU-145 = assay: NCI single-dose GI%, prostate; format: cell-based, human; conditions: DU-145, prostate; 10.0 μM in one dose
786-0 = assay: NCI single-dose GI%, renal; format: cell-based, human; conditions: 786-0, renal; 10.0 μM in one dose
NCI-H322M = assay: NCI single-dose GI%, NSC lung; format: cell-based, human; conditions: 10.0 μM in one dose
M14 = assay: NCI single-dose GI%, melanoma; format: cell-based, human; conditions: 10.0 μM in one dose
MDA-MB-468 = assay: NCI single-dose GI%, breast; format: cell-based, human; conditions: MDA-MB-468, breast; 10.0 μM in one dose
KM12 = assay: NCI single-dose GI%, colon; format: cell-based, human; conditions: 10.0 μM in one dose
UACC-62 = assay: NCI single-dose GI%, melanoma; format: cell-based, human; conditions: UACC-62, melanoma; 10.0 μM in one dose
HCT-116 = assay: NCI single-dose GI%, colon; format: cell-based, human; conditions: HCT-116, colon; 10.0 μM in one dose
SK-MEL-5 = assay: NCI single-dose GI%, melanoma; format: cell-based, human; conditions: SK-MEL-5, melanoma; 10.0 μM in one dose
IGROV1 = assay: NCI single-dose GI%, ovarian; format: cell-based, human; conditions: 10.0 μM in one dose
MALME-3M = assay: NCI single-dose GI%, melanoma; format: cell-based, human; conditions: 10.0 μM in one dose
OVCAR-3 = assay: NCI single-dose GI%, ovarian; format: cell-based, human; conditions: OVCAR-3, ovarian; 10.0 μM in one dose
MDA-MB-435 = assay: NCI single-dose GI%, melanoma; format: cell-based, human; conditions: MDA-MB-435, melanoma; 10.0 μM in one dose
A498 = assay: NCI single-dose GI%, renal; format: cell-based, human; conditions: 10.0 μM in one dose
SW-620 = assay: NCI single-dose GI%, colon; format: cell-based, human; conditions: SW-620, colon; 10.0 μM in one dose

For `CS(=O)(=O)c1ccc(C(=O)N2N=C(c3ccccc3)CC2c2ccc(F)cc2)cc1` (centres unmarked) [Compound 18c, (5-(4-Fluorophenyl)-3-phenyl-4,5-dihydro-1H-pyrazol-1-yl)(4-(methylsulfonyl)phenyl)methanone], the GI% (RPMI-8226) was 20%, the IC50 [1] was 16.2 ± 0.72 µM and the “Casp3 gene expression (fold change)” value [2] was 7.453 fold change. The GI% (U251) was 12%, the GI% (SK-OV-3) was 14% and the GI% (BT-549) was 14%. For the same compound, the GI% (HOP-62) was 26%, the “Casp9 gene expression (fold change)” value [3] was 5.158 fold change and the GI% (NCI-H522) was 48%. The GI% (OVCAR-8) was 20% and the GI% (SNB-75) was 14%.

For `CS(=O)(=O)c1ccc(C(=O)N2N=C(c3ccccc3)CC2c2ccccc2O)cc1` (centres unmarked) [Compound 18h, (5-(2-Hydroxyphenyl)-3-phenyl-4,5-dihydro-1H-pyrazol-1-yl)(4-(methylsulfonyl)phenyl)methanone], the GI% (NCI/ADR-RES) was 22%, the GI% (RPMI-8226) was 16% and the GI% (SR) was 30%. The GI% (SF-295) was 23%, the GI% (SK-MEL-28) was 11% and the GI% (LOX IMVI) was 34%. The GI% (SK-MEL-2) was 28%, the GI% (SNB-19) was 17% and the IC50 [1] was 12.4 µM. The GI% (SF-268) was 39%, the GI% (OVCAR-4) was 22% and the GI% (MDA-MB-231/ATCC) was 32%. The GI% (NCI-H23) was 12%, the GI% (HCT-15) was 56% and the “Casp3 gene expression (fold change)” value [2] was 5.559 fold change. For the same compound, the GI% (ACHN) was 25%, the GI% (U251) was 48% and the GI% (RXF 393) was 29%. For the same compound, the GI% (SK-OV-3) was 25%, the GI% (BT-549) was 19% and the GI% (HOP-62) was 47%. For the same compound, the “Casp9 gene expression (fold change)” value [3] was 2.799 fold change, the GI% (NCI-H522) was 55% and the GI% (CCRF-CEM) was 41%. It also gave a GI% (OVCAR-8) of 41%, a GI% (NCI-H460) of 54% and a GI% (DU-145) of 19%. The GI% (786-0) was 33%, the GI% (NCI-H322M) was 48% and the GI% (M14) was 29%. The GI% (MDA-MB-468) was 17%, the GI% (KM12) was 21% and the GI% (UACC-62) was 12%. It also gave a GI% (HCT-116) of 35%, a GI% (SK-MEL-5) of 38% and a GI% (IGROV1) of 28%. For the same compound, the GI% (MALME-3M) was 21% and the GI% (OVCAR-3) was 35%.

Work on `Cc1ccc(C2=NN(C(=O)c3ccc(S(C)(=O)=O)cc3)C(c3ccc(C)cc3)C2)cc1` (centres unmarked) [Compound 18g, (3,5-Bis(4-tolyl)-4,5-dihydro-1H-pyrazol-1-yl)(4-(methylsulfonyl)phenyl)methanone] yielded a GI% (NCI/ADR-RES) of 38%, a GI% (SR) of 50% and a GI% (MDA-MB-435) of 76%. It also gave a GI% (SF-295) of 30%, a GI% (SK-MEL-28) of 23% and a GI% (LOX IMVI) of 16%. It also gave a GI% (SK-MEL-2) of 33%, a GI% (SNB-19) of 13% and an IC50 [1] of 11.7 ± 0.96 µM. It also gave a GI% (SF-268) of 11%, a GI% (OVCAR-4) of 22% and a GI% (MDA-MB-231/ATCC) of 14%. For the same compound, the GI% (NCI-H23) was 12%, the GI% (HCT-15) was 45% and the “Casp3 gene expression (fold change)” value [2] was 3.945 fold change. For the same compound, the GI% (ACHN) was 12%, the GI% (U251) was 23% and the GI% (SK-OV-3) was 26%. It also gave a GI% (A498) of 16%, a GI% (BT-549) of 27% and a GI% (HOP-62) of 26%. The “Casp9 gene expression (fold change)” value [3] was 4.386 fold change, the GI% (NCI-H522) was 73% and the GI% (SW-620) was 25%. It also gave a GI% (NCI-H460) of 17%, a GI% (786-0) of 22% and a GI% (NCI-H322M) of 12%. The GI% (SNB-75) was 30%, the GI% (M14) was 32% and the GI% (MDA-MB-468) was 45%. For the same compound, the GI% (KM12) was 37%, the GI% (UACC-62) was 36% and the GI% (HCT-116) was 37%. For the same compound, the GI% (SK-MEL-5) was 38%, the GI% (IGROV1) was 23% and the GI% (MALME-3M) was 14%. The GI% (OVCAR-3) was 24%.
